This passage reports Activity results from ChEMBL document CHEMBL4229402, “Kava analogues as agents for treatment of periodontal diseases: Synthesis and initial biological evaluation” (Bioorg Med Chem Lett, 2018).

Active and inactive are the calls of the source. The calls are words filed in the database; no cut-off is given here.

In assay [1] the test system is BMDM. Description: Antiperiodontic activity in mouse bone marrow macrophages assessed as reduction in Porphyromonas gingivalis-induced TNFalpha levels at 20 to 100 ug/ml after 4 hrs by ELISA. The format is functional.
Assay [2] deals with BMDM. Description: Antiperiodontic activity in mouse bone marrow macrophages assessed as reduction in Porphyromonas gingivalis-induced TNFalpha levels at 100 ug/ml after 4 hrs by ELISA. It is filed as functional.

For the molecule `CCOC(=O)C1C(=O)C=C(OC(=O)c2ccccc2)CC1(C)C` (configuration not stated), the outcome with BMDM [1] was Active. Consider `COC1=CC(=O)O[C@@H](/C=C/c2ccccc2)C1`, for which the result in the assay with BMDM [2] was Active.
